According to US4035566A, “N-trifluoroacetyladriamycin-14-alkanoates and therapeutic compositions containing same” (Sidney Farber Cancer Institute, Inc., priority 1975, dated 1977):
Read-outs that look alike come from different tables or passages of the source. One block for each compound: values may come before it.

Key:
CCRF-CEM cell line = test: in vitro growth inhibition of CCRF-CEM cell line in culture (Foley and Lazarus procedure); type: cell-based, child; settings: Homo sapiens, read-out: ID50 (dose required to inhibit growth of the cultures by 50% relative to control cultures)
Description: (§1) The toxicity and therapeutic effectiveness of the new compounds and active agents of the present invention are shown by in vitro assays and by in vivo evaluations in mice. The in vitro assays measure the growth inhibiting activity of the materials against the CCRF-CEM cell line in culture. The cell line was derived from the peripheral blood and a child with lymphoblastic leukemia as described by Foley et al., Cancer, Volume 18, page 522 et seq. (1965), and the assays were carried out by the procedure of Foley and Lazarus, Biochem. Pharmacol., Volume 16, pages 659 et seq. (1967), the results being reported in terms of the dose in micromoles per liter required to inhibit growth of the cultures by 50% relative to control cultures to which no drug had been added (ID50). The in vivo evaluations were made by preparing a 0.2 to 0.7% by weight solution of the active agent in a 10% by volume aqueous solution of polyoxyethylene sorbitan monooleate (polysorbate 80) as a carrier and injecting the dosage intraperitoneally. The evaluations were made of the antitumor activity against the murine P 388 and murine L 1210 leukemias in BDF1 male mice according to standard National Cancer Institute protocols as set forth by Geran et al., Cancer Chemotherap. Rep., Part 3, Volume 3, pages 1 et seq. (1972), except that a qd 1-4 schedule was used in place of qd 1-9 in order to conserve materials. Evaluations were also made of the antitumor activity against the Ridgway osteogenic sarcoma, a solid tumor, in AKD2 /F1 mice, according to the procedures described in the report by G. J. D'Angio, C. L. Maddock, S. Farber, and B. L. Brown, Cancer Research, 25, 1002-1007 (1965).
The following table summarizes the inhibitory activity of various N-trifluoroacetyladriamycin-14-alkanoates as well as other materials when tested in vitro as described in the paragraphs preceding Example 1 above.

murine P 388 leukemia = test: in vivo antitumor activity against murine P 388 leukemia (Geran et al. procedure); set-up: species or system BDF1 male mice; settings: Table II, i.p., qd 1-4; for Survivors 60da: optimal dose mg/kg: acetate 40, isobutyrate 40, valerate 40, caproate 60, caprylate 60; for MILS (Median Increase in Life Span Compared with Untreated Mice) / Survivors 30da: optimal dose mg/kg: adriamycin 4.0, daunomycin 2.0, acetate 40, isobutyrate 40, valerate 40, caproate 60, caprylate 60
Description: as §1
(§2) Optimal dosage was determined by testing doses which were at several multiples of 10 milligrams/kilogram of body weight and the optimal dose was used for further tests. Some effectiveness can be observed at dosages ranging from 20 to 70 milligrams/kilogram of body weight, depending upon the particular ester employed.
The following table summarizes the in vivo antitumor activity against murine P 388 leukemia tested by the Geran et al. procedure as exampled above: […]

murine L 1210 leukemia [1] = test: in vivo antitumor activity against murine L 1210 leukemia (Geran et al. procedure); set-up: species or system BDF1 male mice; settings: for MILS / Survivors 30da / Survivors 60da: Table III, qd 1-4
Description: as §1, §2
The murine L 1210 leukemia is generally poorly responsive to chemotherapy. […] The following table summarizes the results of three separate in vivo tests of N-trifluoroacetyladriamycin-14-valerate against murine L 1210 leukemia following the Geran et al. procedure as described above: […]

[2] = test system: murine Ridgway osteogenic sarcoma; test: in vivo antitumor activity against murine Ridgway osteogenic sarcoma (D'Angio et al. procedure); set-up: species or system AKD2 /F1 mice; settings: for MILS / Median Survival: Table IV, days 16-19
Description: as §1
The following table summarizes the in vivo antitumor activity of N-trifluoroacetyladriamycin-14-valerate against the murine Ridgway osteogenic sarcoma following the D'Angio et at. procedure as described above:
*Therapy was started on day 16 when the intramuscularly implanted tumor was palpable. Seven mice were used in each group, and all compounds were administered intraperitoneally.
Complete remission in this system is defined as the absence of palpable tumor.

mice = test: toxicity in mice in the in vivo antitumor tests; settings: P 388 test conditions, qd 1-4; for toxicity: dose of 60 mg/kg i.p.
Description: as §1, §2

murine L 1210 leukemia [3] = settings: background statement; cited from earlier work
malignant tumors = settings: cited from earlier work; for clinical effectiveness: certain malignant tumors, e.g. induction of remission in acute leukemia
[4] = toxicity in mice in the in vivo antitumor tests; settings: mouse, in vivo, ip; L1210 test, qd 1-4 schedule; read-out: doses above which toxicity displayed
Description: as §1, §2

[5] = Ridgway tumor, complete remission = absence of palpable tumor
[6] = L1210 leukemia, same conditions as Table III

Compound: COc1cccc2c1C(=O)c1c(O)c3c(c(O)c1C2=O)C[C@@](O)(C(=O)COC(C)=O)C[C@@H]3O[C@H]1C[C@H](NC(=O)C(F)(F)F)[C@H](O)[C@H](C)O1 [Acetate, N-trifluoroacetyladriamycin-14-acetate]
IC50 (CCRF-CEM cell line; CCRF-CEM cells, Table I): 200 nM
Survivors 60da (murine P 388 leukemia): 0/5
MILS (Median Increase in Life Span Compared with Untreated Mice) (murine P 388 leukemia): 173%
Survivors 30da (murine P 388 leukemia): 2/5

Compound: COc1cccc2c1C(=O)c1c(O)c3c(c(O)c1C2=O)C[C@@](O)(C(=O)CO)C[C@@H]3O[C@H]1C[C@H](N)[C@H](O)[C@H](C)O1 [Adriamycin]
IC50 (CCRF-CEM cell line; CCRF-CEM): 66 nM
MILS (Median Increase in Life Span Compared with Untreated Mice) (murine P 388 leukemia): 132%
Survivors 30da (murine P 388 leukemia): 0/6
MILS (murine L 1210 leukemia [1]; first test, 4.0 mg/kg i.p.): 45%
Survivors 30da (murine L 1210 leukemia [1]; first test, 4.0 mg/kg i.p.): 0/5
MILS (murine L 1210 leukemia [1]; second test, 4.0 mg/kg i.p.): 54%
Survivors 30da (murine L 1210 leukemia [1]; second test, 4.0 mg/kg i.p.): 1/5
Survivors 60da (murine L 1210 leukemia [1]; second test, 4.0 mg/kg i.p.): 0/5
MILS (murine L 1210 leukemia [1]; third test, 4.0 mg/kg i.p.): 42%
Survivors 30da (murine L 1210 leukemia [1]; third test, 4.0 mg/kg i.p.): 0/7
MILS ([2]; 3.0 mg/kg i.p.): 40%
Median Survival ([2]; 3.0 mg/kg i.p.): 51.0 days
dose at and above which toxic (mice; i.p.): ≥ 4 mg/kg
effectiveness in prolonging survival of mice bearing L 1210 leukemia (general statement) (murine L 1210 leukemia [3]): only moderately effective
clinical effectiveness (malignant tumors): effective clinically against certain malignant tumors
toxicities in chemotherapy (malignant tumors; limiting long-term use): a variety of toxicities which limit the effectiveness of the compounds
clinical efficacy against certain solid tumors (malignant tumors; solid tumors): has shown clinical efficacy against certain solid tumors

IC50 (CCRF-CEM cell line; CCRF-CEM cells, Table I): 390 nM
Compound: CCCCCCCCCC(=O)OCC(=O)[C@]1(O)Cc2c(O)c3c(c(O)c2[C@@H](O[C@H]2C[C@H](NC(=O)C(F)(F)F)[C@H](O)[C@H](C)O2)C1)C(=O)c1c(OC)cccc1C3=O [Caprate, N-Trifluoroacetyladriamycin-14-caprate]

Compound: CCCCCC(=O)OCC(=O)[C@]1(O)Cc2c(O)c3c(c(O)c2[C@@H](O[C@H]2C[C@H](NC(=O)C(F)(F)F)[C@H](O)[C@H](C)O2)C1)C(=O)c1c(OC)cccc1C3=O [Caproate, N-Trifluoroacetyladriamycin-14-caproate]
IC50 (CCRF-CEM cell line; CCRF-CEM cells, Table I): 330 nM
Survivors 60da (murine P 388 leukemia): 1/5
MILS (Median Increase in Life Span Compared with Untreated Mice) (murine P 388 leukemia): 271%
Survivors 30da (murine P 388 leukemia): 5/5
toxicity (mice): no toxicity was observed

Compound: CCCCCCCC(=O)OCC(=O)[C@]1(O)Cc2c(O)c3c(c(O)c2[C@@H](O[C@H]2C[C@H](NC(=O)C(F)(F)F)[C@H](O)[C@H](C)O2)C1)C(=O)c1c(OC)cccc1C3=O [Caprylate, N-Trifluoroacetyladriamycin-14-caprylate]
IC50 (CCRF-CEM cell line; CCRF-CEM cells, Table I): 360 nM
Survivors 60da (murine P 388 leukemia): 1/5
MILS (Median Increase in Life Span Compared with Untreated Mice) (murine P 388 leukemia): 243%
Survivors 30da (murine P 388 leukemia): 5/5
toxicity (mice): no toxicity was observed

Compound: COc1cccc2c1C(=O)c1c(O)c3c(c(O)c1C2=O)C[C@@](O)(C(C)=O)C[C@@H]3O[C@H]1C[C@H](N)[C@H](O)[C@H](C)O1 [Daunomycin, reference compound]
IC50 (CCRF-CEM cell line; CCRF-CEM): 35 nM
MILS (Median Increase in Life Span Compared with Untreated Mice) (murine P 388 leukemia): 91%
Survivors 30da (murine P 388 leukemia): 0/6
effectiveness in prolonging survival of mice bearing L 1210 leukemia (general statement) (murine L 1210 leukemia [3]): much less so
clinical effectiveness (malignant tumors): effective clinically against certain malignant tumors
toxicities in chemotherapy (malignant tumors; in vivo): a variety of toxicities which limit the effectiveness of the compounds

Compound: COc1cccc2c1C(=O)c1c(O)c3c(c(O)c1C2=O)C[C@@](O)(C(=O)COC(=O)C(C)C)C[C@@H]3O[C@H]1C[C@H](NC(=O)C(F)(F)F)[C@H](O)[C@H](C)O1 [Isobutyrate, N-Trifluoroacetyladriamycin-14-isobutyrate]
IC50 (CCRF-CEM cell line; CCRF-CEM cells, Table I): 280 nM
Survivors 60da (murine P 388 leukemia): 1/5
MILS (Median Increase in Life Span Compared with Untreated Mice) (murine P 388 leukemia): 150%
Survivors 30da (murine P 388 leukemia): 3/5

Compound: CCCCC(=O)OCC(=O)[C@]1(O)Cc2c(O)c3c(c(O)c2[C@@H](O[C@H]2C[C@H](NC(=O)C(F)(F)F)[C@H](O)[C@H](C)O2)C1)C(=O)c1c(OC)cccc1C3=O [N-Trifluoroacetyladriamycin-14-valerate]
IC50 (CCRF-CEM cell line; CCRF-CEM cells, Table I): 240 nM
Survivors 60da (murine P 388 leukemia): 3/5
MILS (Median Increase in Life Span Compared with Untreated Mice) (murine P 388 leukemia): 429%
Survivors 30da (murine P 388 leukemia): 4/5
MILS (murine L 1210 leukemia [1]; first test, 60.0 mg/kg i.p.): > 445%
Survivors 30da (murine L 1210 leukemia [1]; first test, 60.0 mg/kg i.p.): 4/5
Survivors 60da (murine L 1210 leukemia [1]; first test, 60.0 mg/kg i.p.): 4/5
MILS (murine L 1210 leukemia [1]; first test, 70.0 mg/kg i.p.): > 445%
Survivors 30da (murine L 1210 leukemia [1]; first test, 70.0 mg/kg i.p.): 4/5
Survivors 60da (murine L 1210 leukemia [1]; first test, 70.0 mg/kg i.p.): 4/5
MILS (murine L 1210 leukemia [1]; second test, 50.0 mg/kg i.p.): > 445%
Survivors 30da (murine L 1210 leukemia [1]; second test, 50.0 mg/kg i.p.): 4/7
Survivors 60da (murine L 1210 leukemia [1]; second test, 50.0 mg/kg i.p.): 4/7
MILS (murine L 1210 leukemia [1]; second test, 60.0 mg/kg i.p.): > 445%
Survivors 30da (murine L 1210 leukemia [1]; second test, 60.0 mg/kg i.p.): 3/6
Survivors 60da (murine L 1210 leukemia [1]; second test, 60.0 mg/kg i.p.): 3/6
MILS (murine L 1210 leukemia [1]; third test, 50.0 mg/kg i.p.): > 400%
Survivors 30da (murine L 1210 leukemia [1]; third test, 50.0 mg/kg i.p.): 5/7
Survivors 60da (murine L 1210 leukemia [1]; third test, 50.0 mg/kg i.p.): 5/7
MILS (murine L 1210 leukemia [1]; third test, 60.0 mg/kg i.p.): > 400%
Survivors 30da (murine L 1210 leukemia [1]; third test, 60.0 mg/kg i.p.): 6/7
Survivors 60da (murine L 1210 leukemia [1]; third test, 60.0 mg/kg i.p.): 6/7
gross number of complete remissions compared with adriamycin [2, 5]: the gross number of complete remissions was greater
median duration of complete remission compared with adriamycin [2, 5]: the median duration of complete remission was longer
MILS ([2]; 50.0 mg/kg i.p.): 130%
Median Survival ([2]; 50.0 mg/kg i.p.): 84.0 days
MILS ([2]; 60.0 mg/kg i.p.): 122%
Median Survival ([2]; 60.0 mg/kg i.p.): 81.0 days

IC50 (CCRF-CEM cell line; CCRF-CEM cells, Table I): 590 nM
Compound: COc1cccc2c1C(=O)c1c(O)c3c(c(O)c1C2=O)C[C@@](O)(C(=O)COC(=O)C(C)(C)C)C[C@@H]3O[C@H]1C[C@H](NC(=O)C(F)(F)F)[C@H](O)[C@H](C)O1 [Pivalate, N-Trifluoroacetyladriamycin-14-pivalate]

IC50 (CCRF-CEM cell line; CCRF-CEM cells, Table I): 300 nM
Compound: CCC(=O)OCC(=O)[C@]1(O)Cc2c(O)c3c(c(O)c2[C@@H](O[C@H]2C[C@H](NC(=O)C(F)(F)F)[C@H](O)[C@H](C)O2)C1)C(=O)c1c(OC)cccc1C3=O [Propionate, N-Trifluoroacetyladriamycin-14-propionate]

Compound: CCCCC(=O)OCC(=O)[C@]1(O)Cc2c(O)c3c(c(O)c2[C@@H](O[C@H]2C[C@H](N)[C@H](O)[C@H](C)O2)C1)C(=O)c1c(OC)cccc1C3=O [adriamycin-14-valerate, reference compound]
effectiveness in prolonging survival of tumor-bearing mice compared with daunomycin (murine L 1210 leukemia [1]; [6]): no more effective than daunomycin
survivors after 30 days (murine L 1210 leukemia [1]; [6]): no survivors after 30 days
MTD [4]: > 4 mg/kg
